Among the data in patent US8129423B2, “Imidazolone and imidazoloidinone derivatives as 11b-HSD1 inhibitors” (Hoffman-La Roche Inc., priority 2006, dated 2012) are IC50 and insulin sensitivity values, retold here.

Experiment [1] has as its target T1, 11beta-HSD1 (Homo sapiens, UniProt P28845). Kind of experiment: Microsome assay: cortisone to cortisol conversion, ELISA-based cortisol detection. The class given is biochemical. Also noted: made in house; host or cells: HEK293 cells (ATCC CRL-1573), transient transfection with lipofectamine; microsomal fraction. The following applies: microsomes from HEK293 cells transiently expressing human 11beta-HSD1; cortisone 50-200 nM, NADPH 1 mM, 60 min, 37° C.; read-out: h 11-beta-HSD 1 IC50. The protocol: The cDNA encoding the human 11beta-HSD1 protein was cloned into the expression vector pcDNA3 ([…]). This construct (for details see Alex Odermatt et al.; J Biol. Chem., 1999, Vol. 274, Issue 40, 28762-28770) was used to transiently express the protein in HEK293 cells (ATCC number: CRL-1573, described in Graham, F. L., Smiley, J., Russell, W. C., Nairn, R.; (1977)) using lipofectamine. 48 h after transfection cells were washed twice with ice-cold PBS (Phsophate buffered Saline). To 1 volume of cell suspension in PBS 2 volumes of ice-cold lysis buffer (50 mM Tris; pH7.5; 1 mM EDTA; 100 mM NaCl) were added. The cells were lysed by Potter-homogenization (20 strokes). The resulting homogenate was sonicated with a tip sonicator (10% output; 2×30 sec.) and cleared by a low speed centrifugation (10 min×9000 g; 4° C.). The microsomal fraction was collected by a high speed centrifugation (60 min×110,000 g). The resulting pellet was resuspended in storage buffer (20 mM Tris pH 7.5; 1 mM EDTA; 10% Glycerol) and the centrifugation was repeated. The resulting pellet containing the microsomal fraction was again taken up into storage buffer and aliquots were kept frozen in liquid Nitrogen until use.
Microsomes isolated from HEK293 cells transiently expressing human 11beta-HSD1 (for details see above) were incubated in assay buffer (100 mM NaCl; 1 mM EDTA; 1 mM EGTA; 1 mM MgCl; 250 mM Sucrose; 20 mM Tris pH 7.4; Cortisone 50-200 nM and NADPH 1 mM) together with different concentrations of test substances. After 60 min. of incubation at 37° C. the assay was stopped by heating to 80° C. (5 min.) and by addition of the inhibitor Carbenoxolone (1 uM). The amount of Cortisol produced in this assay was determined using a commercially available, ELISA-based Cortisol-detection kit (Distributed by Assay Design, Inc.). Inhibitors were characterized by their IC50 values, e.g. the concentration at which the production of cortisol was 50% reduced.
On the technique in general: An ELISA detects its analyte on a solid surface through an enzyme-linked reagent.

In experiment [2] the target is T1, 11beta-HSD1. Also noted: host or cells: in vivo treatment of human subjects. The following applies: in man, treatment with carbenoxolone; cited from earlier work.

Broadly, the pIC50 is the IC50 on a negative log10 scale, so that one unit is a factor of ten.

pIC50: −log10 of the molar value.

T1 sequence (P28845 whole entry): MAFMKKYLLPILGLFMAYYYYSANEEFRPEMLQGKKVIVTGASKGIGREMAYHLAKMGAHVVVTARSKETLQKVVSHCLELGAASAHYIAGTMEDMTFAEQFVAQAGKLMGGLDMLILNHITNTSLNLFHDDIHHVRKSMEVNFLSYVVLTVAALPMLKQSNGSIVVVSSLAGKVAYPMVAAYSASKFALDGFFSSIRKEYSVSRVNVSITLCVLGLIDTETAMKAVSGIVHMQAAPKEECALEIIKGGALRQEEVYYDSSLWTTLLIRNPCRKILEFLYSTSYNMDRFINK

Consider `O=c1[nH]c(CC(F)(F)F)cn1C1C2CC3CC(C2)CC1C3` (stereo not shown) [Example 16, 1-Adamantan-2-yl-4-(2,2,2-trifluoro-ethyl)-1,3-dihydro-imidazol-2-one], for which the pIC50 at 11beta-HSD1 [1] is 7.41.
With `CC(C)Cc1cn(-c2ccccc2OC(F)(F)F)c(=O)n1CC1CC1` [Example 45, 3-Cyclopropylmethyl-4-isobutyl-1-(2-trifluoromethoxy-phenyl)-1,3-dihydro-imidazol-2-one], the pIC50 at 11beta-HSD1 [1] is 6.72.
Take `CC1(C2CC2)CN(C2C3CC4CC2CC(O)(C4)C3)C(=O)N1C1CC1` (stereo not shown) [Example 80, 3,4-Dicyclopropyl-1-[(E)-5-hydroxy-adamantan-2-yl]-4-methyl-imidazolidin-2-one]: the negative logarithm of the IC50 (pIC50) at 11beta-HSD1 [1] was 8.52.
Turning to `CC1(C)[C@@H](OC(=O)CCC(=O)O)CC[C@]2(C)[C@H]3C(=O)C=C4[C@@H]5C[C@@](C)(C(=O)O)CC[C@]5(C)CC[C@@]4(C)[C@]3(C)CC[C@@H]12` [carbenoxolone], the insulin sensitivity result at 11beta-HSD1 [2] is on record as “increase in insulin sensitivity”.
